This is an account of results in publication PMC7731283, “Synthesis and Biological Evaluation of Halogenated E-Stilbenols as Promising Antiaging Agents” (Molecules, 2020).

On the set-up of series [1]: method as in PMID 29315886, PMID 15779070. The following applies: compared with RSV; cited from earlier work.
In series [2] the test system is C2C12 cells. Description: NBT assay, superoxide anion detection. Format: cell-based, mouse. The following applies: C2C12, 24 h incubation, 1 and 10 μM. As for the experimental part:
At first, the antioxidant effect of compound 6 was assessed by NBT assay (Figure 5). The NBT assay is based on the reduction of NBT into formazan by superoxide anion O2^-. […] The concentration of superoxide anion radical in the cells was determined by spectrophotometric method and is based on the reduction of Nitro blue tetrazolium chloride to Nitro blue-formazan in the presence of O2^-.
Since that during aging, among the ROS there are radicals as superoxide anion that can levels increase, [32] we used NBT assay in order to evaluate the antioxidant capacity of compound 6. C2C12 cells (10^6 cells) were stimulated with or w/o the compound 6 at 1 and 10 μM together with the RSV for 24 h, harvested, centrifuged for 5 min at 1200 rpm and resuspended in 1 mL 0.9% NaCl in which NBT (Nitro blue tetrazolium chloride) is dissolved 1 mg/mL. The cells were incubated for 3 h at 37 °C, centrifuged (for 10 min at 1200 rpm), resuspended in 1 mL DMSO and left 20’ in 37 °C. For the assay, the cells were plated in a 96 well plate (2 × 10^5 cell/well) and read by spectrophotometer at 550 nm on a scanning multi-well spectrophotometer (Cary50MPR, Varian, Santa Clara, CA, USA).

Series [3] deals with C2C12 cells. Description: MTT assay, cell vitality/proliferation. Format: cell-based, mouse. As for the experimental part:
The oxidative stress plays one of the key roles in cell’s life path. For these reasons, to evaluate the possible cytotoxic effects of compounds 1–7 and their effect on the cell proliferative capacity and to define a suitable concentration range, all the new synthesized compounds 1–7 were evaluated for their cytotoxic activity at three different concentrations (1, 10 and 100 μM) via standard MTT assay, using C2C12 cell line (Figure 3). Due to well-known antioxidant and neurodegenerative senescence prevention abilities in addition to enhancing the beneficial effects of physical exercise on the skeletal muscles of the elderly, RSV was used as reference compound [54, 55]. […] For this reason, we performed the same assay also at 48 h for the compounds 5, 6 and RSV (Figure 4).
Prompted by the results obtained for compound 6 as a scavenge ROS due the presence of halogenated groups, we used the widely C2C12 mouse cells as a myogenic model, to study its antioxidant effects following both the evaluation of superoxide anion radical concentration and chemical insults, such as from H2O2. C2C12 cells (CRL 1772; American Type Culture Collection, Rockville, MD, USA) were grown in Dulbecco’s modified Eagle’s medium (DMEM; Euroclone, Pero, Italy) containing 20% foetal bovine serum (Euroclone), […] L-glutamine (Euroclone) and 100 IU mL^−1 penicillin and 100 μg mL^−1 streptomycin (Euroclone). The cells were maintained at 37 °C in a 5% CO2 humidified atmosphere.
Cellular proliferation was tested using a colorimetric assay of 3-[4,5-dimethylthiazol-2-yl]-2,5-diphenyltetrazolium bromide (MTT). We seeded 2000 cells/well in a final volume of 200 μL growth medium in 96-well plates. After 24 h the cells were stimulated with or w/o the newly synthesized compounds for 24 h, or, where indicated, for 48 h. We tested seven new synthesized compounds together with RSV reference at different concentration (1, 10, 100 μM). All compounds were dissolved in DMSO and the experimental dilutions used were made using cellular growth medium. For this reason, the cells were also incubated for 24 h with the DMSO at the same concentration used for the compounds. Incubation was terminated by adding 20 μL of MTT solution (5 mg mL^−1 in phosphate-buffered saline (PBS)) to each well, followed by incubation at 37 °C for 3 h in the dark. After, the plates were centrifuged at 2000 rpm for 15 min. The supernatant was removed, 200 μL dimethylsulfoxide (DMSO) was added to each well, and the plates were incubated for 30 min at 37 °C in the dark. Finally, the plates were read at 540 nm on a scanning multi-well spectrophotometer (Cary50MPR, Varian, Santa Clara, CA, USA).
(In general: Tetrazolium assays rely on reduction of a dye to a coloured formazan, in cell work by metabolically active cells.)

The test system of series [4] is C2C12 cells. As to the kind of experiment: H2DCFDA assay, intracellular ROS after H2O2 insult. Format: cell-based, mouse. As for the experimental part: Indeed, the antioxidant activity of compound 6 was also evaluated using an H2DCFDA assay (Figure 6). This assay is one of the most widely used techniques for directly measuring the redox state of a cell. In order to accurately measure ROS and the cellular capability to counteract the H2O2 insult, we used cell-permeable fluorescent and chemiluminescent probes. The fluorescence intensity is proportional to the ROS levels within the cell cytosol and it is in inverse relation to the antioxidant capacity of the cells themselves. The ability to restore the basal level of fluorescence are reported in Figure 6, after 0.5 and 10 min following oxidant stimulus.
Intracellular ROS were quantified by the 2′,7′-dichlorodihydrofluorescein diacetate (H2DCF-DA Cat. No. D6883; Sigma). C2C12 cells were plated (2000 cells/well) into special optics 96-well plates (Corning-Costar, New York, NY, USA) and the cells were treated with RSV at 1 µM and Compound 6 at 1 and 10 µM for 24 h. After the incubation, cells were washed with an imaging buffer and treated with 300 µM H2O2 for an immediate fluorescence measurement. Plates were read every 50 s from 0 to 10 min for kinetic data analysis using a microplate reader (Synergy H1, BioTek), with excitation and emission wavelengths at 490 nm and 520 nm, respectively, and analyzed by Gen 5 version 2.08 (BioTek).

Series [5] is described as follows: Log P by RP-HPLC (HPLC-PDA), extrapolation of Log k to 0% MeOH. The following applies: for Log k / Retention factor (k): RP-C18. Format: physicochemical. As for the experimental part:
For each compound, the retention time was reported at different percentages of mobile phases (Table 1). See Materials and Methods and Supplementary Materials for the detailed procedures. (1) k= tR− tM/tM where tR is the retention time of the sample and tM is the retention time of blank (methanol).
Stock solutions of each compound were prepared as follow: 1 mg of the synthesized compound and RSV (control) was weighted and dissolved in 1 mL of dimethyl sulfoxide (DMSO). The working solutions were prepared in methanol at 100 µg/mL. 20 µL of working solutions was injected in HPLC system without pre-treatment.
The HPLC analyses for all new compounds were carried out in isocratic conditions with Milli-Q Water (18.2 MΩ-cm at 25 °C) as solvent A and MeOH as solvent B in different percentages reported in […]. RP-C18 stationary phase (LiChrosorb C18, 150 × 4.6 mm, 5 µm) column was used. All compounds were detected at their maximum wavelength: 322 nm for 1, 301 nm for 2, 324 nm for 3, 324 nm for 4, 373 nm for 5, 322 nm for 6, 320 nm for 7, whereas RSV was detected at 306 nm. The total run time was kept until sample elution.

Structures are written as SMILES.

As to `COc1cc(/C=C/c2ccc(O)cc2)cc(OC)c1` [pterostilbene], the metabolic stability entry in series [1] is reported as “more metabolically stable”.

`Oc1ccc(/C=C/c2ccc(C(F)(F)F)cc2)cc1Cl` [Compound 6, 2-Chloro-4-{(E)-2-[4-(trifluoromethyl)phenyl]vinyl}phenol] gave a melting point of 117 to 118.4 °C. The “O2- levels (NBT assay)” value in the series with C2C12 cells [2] is recorded as “significant decrease of O2^- levels”. Further, in the series on C2C12 cells [3] (C2C12, 24 h, 100 μM), the “cell vitality (MTT reduction)” value is listed as “drastically reduced the vitality”. Besides, the “cell vitality (MTT reduction)” value with C2C12 cells [3] (C2C12, 24 h, 1 and 10 μM) is “significant increase of the cell vitality”. Besides, the “cell vitality (MTT reduction)” value with C2C12 cells [3] (C2C12, 48 h, 1 μM) is listed as “moderate effect”. For the same compound, the “cell vitality (MTT reduction)” value in the series with C2C12 cells [3] (C2C12, 48 h, 10 μM) is on record as “higher effect”. For the same compound, the “cell vitality (MTT reduction)” value with C2C12 cells [3] (C2C12, 48 h, 1 and 10 μM) is reported as “enhanced vitality”. The “antioxidant capacity with respect to RSV” value in the series on C2C12 cells [4] (C2C12, 10 μM, 300 µM H2O2) is reported as “significantly higher antioxidant capacity”. Moreover, the “oxidant insult by H2O2 (H2DCFDA fluorescence)” value with C2C12 cells [4] (C2C12, 10 μM, 24 h pretreatment, 300 µM H2O2, stable throughout time-course) is reported as “strongly counteracted”. In the series with C2C12 cells [4] (C2C12, 24 h pretreatment, 300 µM H2O2, compared to CTRL), the “ROS levels (H2DCFDA fluorescence)” value is recorded as “reduce the ROS levels”. In series [5] (60% MeOH), the Log k was 1.4227 and the “Retention factor (k)” value is on record as 26.4651. Further, in series [5] (65% MeOH), the Log k is given as 1.0820 and the “Retention factor (k)” value was 12.0776. Further, in series [5] (70% MeOH), the Log k is 0.7645 and the “Retention factor (k)” value was 5.8149. In addition, in series [5] (75% MeOH), the Log k was 0.4605 and the “Retention factor (k)” value is recorded as 2.8871. In series [5] (80% MeOH), the Log k was 0.1498 and the “Retention factor (k)” value is reported as 1.4118. Further, in series [5] (Log P estimated by RP-HPLC, extrapolated to 0% MeOH, SD at 95% confidence interval), the chromatographic logP is 5.21 ± 0.06.

In general, chromatographic logP refers to lipophilicity estimated from chromatographic retention. As a reminder, the melting point is the temperature, or range, at which the solid turns liquid.
